According to patent US11759455B2, “Substituted 1H-imidazo[4,5-b]pyridin-2(3H)-ones and their use as GLUN2B receptor modulators” (JANSSEN PHARMACEUTICA NV, priority 2016, dated 2023):
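Further: stable Tet-On inducible cell line, Ca2+ influx triggered by glutamate at about EC40 plus 10 µM glycine, fluorescent dye read-out over 5 min, normalized to control wells.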

These compounds were tested against T1, human GluN1/GluN2B NMDA receptors (Homo sapiens, UniProt Q13224) (assay: Cell-based calcium flux (FLIPR) assay on cloned human NR1/NR2B ion channels expressed in mammalian cells (standard and HTS buffer variants)). Settings: HTS assay buffer (1.5 mM MgCl2 dye loading; 150 mM NaCl, 3 mM KCl assay buffer), human GluN1/GluN2B cells, read-out: NR2B IC50 (μM) HTS assay.
T1 construct: expressed in transfected cells
T1 sequence (Q13224 27-1484, other chains not shown): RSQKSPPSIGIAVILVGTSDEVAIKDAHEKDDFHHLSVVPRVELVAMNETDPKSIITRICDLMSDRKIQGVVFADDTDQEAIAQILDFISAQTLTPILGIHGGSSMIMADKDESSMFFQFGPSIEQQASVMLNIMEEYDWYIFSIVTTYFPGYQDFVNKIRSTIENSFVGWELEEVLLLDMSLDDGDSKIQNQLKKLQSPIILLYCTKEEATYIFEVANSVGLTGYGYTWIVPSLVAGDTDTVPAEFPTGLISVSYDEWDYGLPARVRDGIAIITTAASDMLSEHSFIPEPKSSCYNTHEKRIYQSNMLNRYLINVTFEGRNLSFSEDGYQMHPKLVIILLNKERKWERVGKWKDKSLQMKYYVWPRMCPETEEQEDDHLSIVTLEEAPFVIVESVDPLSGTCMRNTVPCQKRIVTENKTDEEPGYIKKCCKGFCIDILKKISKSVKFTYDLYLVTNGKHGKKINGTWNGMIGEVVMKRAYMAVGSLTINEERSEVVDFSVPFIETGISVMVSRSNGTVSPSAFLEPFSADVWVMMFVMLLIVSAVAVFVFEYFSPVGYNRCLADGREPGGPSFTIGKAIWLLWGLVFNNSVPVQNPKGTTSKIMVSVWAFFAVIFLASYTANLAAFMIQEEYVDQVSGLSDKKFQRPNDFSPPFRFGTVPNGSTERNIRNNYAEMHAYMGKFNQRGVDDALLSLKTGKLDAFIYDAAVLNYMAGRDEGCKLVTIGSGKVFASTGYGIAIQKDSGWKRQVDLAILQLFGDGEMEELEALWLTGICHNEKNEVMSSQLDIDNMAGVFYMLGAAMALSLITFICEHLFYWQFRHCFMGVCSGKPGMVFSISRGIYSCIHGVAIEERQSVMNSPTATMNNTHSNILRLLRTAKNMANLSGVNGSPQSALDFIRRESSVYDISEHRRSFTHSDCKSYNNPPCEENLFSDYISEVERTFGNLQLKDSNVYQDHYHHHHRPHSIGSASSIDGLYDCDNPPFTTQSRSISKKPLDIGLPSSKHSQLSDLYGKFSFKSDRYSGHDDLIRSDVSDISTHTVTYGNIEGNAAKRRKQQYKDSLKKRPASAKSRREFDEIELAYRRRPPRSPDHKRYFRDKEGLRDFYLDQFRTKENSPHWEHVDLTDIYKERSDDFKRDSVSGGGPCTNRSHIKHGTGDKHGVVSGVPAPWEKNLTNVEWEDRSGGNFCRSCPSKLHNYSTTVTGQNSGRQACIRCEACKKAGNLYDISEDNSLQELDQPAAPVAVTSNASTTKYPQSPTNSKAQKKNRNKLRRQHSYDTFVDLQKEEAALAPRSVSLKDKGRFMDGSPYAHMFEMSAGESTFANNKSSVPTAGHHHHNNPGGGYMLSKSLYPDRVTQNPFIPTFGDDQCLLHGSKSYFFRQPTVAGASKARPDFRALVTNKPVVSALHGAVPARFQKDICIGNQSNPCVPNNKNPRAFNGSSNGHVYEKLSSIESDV
`COCCn1c(=O)[nH]c2ncc(-c3ccc(F)cc3C)cc21` [Example 2, 6-(4-Fluoro-2-methyl-phenyl)-1-(2-methoxyethyl)-3H-imidazo[4,5-b]pyridin-2-one] was tested, and the IC50 was 2.06 µM. Compound `COc1ccc(-c2cnc3[nH]c(=O)n(CC(=O)N4CCCC4)c3c2)cc1` [Example 35, 6-(4-Methoxyphenyl)-1-(2-oxo-2-pyrrolidin-1-yl-ethyl)-3H-imidazo[4,5-b]pyridin-2-one] has an IC50 of 2.14 µM. `COc1ccc(-c2cnc3[nH]c(=O)n(CC(=O)NC4CC4)c3c2)c(Cl)c1` [Example 37, 2-[6-(2-Chloro-4-methoxy-phenyl)-2-oxo-3H-imidazo[4,5-b]pyridin-1-yl]-N-cyclopropyl-acetamide] showed an IC50 of 1.38 µM. For `COc1ccc(-c2cnc3[nH]c(=O)n(CC(=O)NC4CC4)c3c2)cc1` [Example 38, N-Cyclopropyl-2-[6-(4-methoxyphenyl)-2-oxo-3H-imidazo[4,5-b]pyridin-1-yl]acetamide], the IC50 was 1.01 µM. `Cc1cc(C)cc(-c2cnc3[nH]c(=O)n(CC(=O)NC4CC4)c3c2)c1` [Example 39, N-Cyclopropyl-2-[6-(3,5-dimethylphenyl)-2-oxo-3H-imidazo[4,5-b]pyridin-1-yl]acetamide] gave an IC50 of 1.03 µM. In the case of `Cc1cc(F)ccc1-c1cnc2[nH]c(=O)n(CC(=O)N(C)C3CC3)c2c1` [Example 40, N-Cyclopropyl-2-[6-(4-fluoro-2-methyl-phenyl)-2-oxo-3H-imidazo[4,5-b]pyridin-1-yl]-N-methyl-acetamide], the IC50 is reported as 1.82 µM. For `COc1ccc(-c2cnc3[nH]c(=O)n(CC(=O)N(C)C4CC4)c3c2)cc1` [Example 41, N-Cyclopropyl-2-[6-(4-methoxyphenyl)-2-oxo-3H-imidazo[4,5-b]pyridin-1-yl]-N-methyl-acetamide], the IC50 was 8.72 µM. Work on `Cc1cc(F)ccc1-c1cnc2c(c1)n(CC(=O)NC1CC1)c(=O)n2C` [Example 42, N-Cyclopropyl-2-[6-(4-fluoro-2-methyl-phenyl)-3-methyl-2-oxo-imidazo[4,5-b]pyridin-1-yl]acetamide] yielded an IC50 of 2.71 µM.

Same assay, conditions: standard assay buffer (0.5 mM MgCl2 dye loading; 137 mM NaCl, 4 mM KCl assay buffer), human GluN1/GluN2B cells, read-out: NR2B IC50 (μM) standard assay
For `COc1ccc(-c2cnc3[nH]c(=O)n(CC(=O)N4CCOCC4)c3c2)cc1` [Example 1, 6-(4-Methoxyphenyl)-1-(2-morpholino-2-oxo-ethyl)-3H-imidazo[4,5-b]pyridin-2-one], the IC50 was 2.74 µM. With `CCNC(=O)Cn1c(=O)[nH]c2ncc(-c3ccc(F)cc3C)cc21` [Example 3, N-Ethyl-2-[6-(4-fluoro-2-methyl-phenyl)-2-oxo-3H-imidazo[4,5-b]pyridin-1-yl]acetamide] the IC50 was 0.088 µM. In the case of `Cc1cc(-c2cnc3c(c2)n(Cc2ccccn2)c(=O)n3C)ccc1F` [Example 6, 6-(4-Fluoro-3-methyl-phenyl)-3-methyl-1-(2-pyridylmethyl)imidazo[4,5-b]pyridin-2-one], the IC50 is reported as 0.048 µM. For `Cn1c(=O)n(Cc2ccncn2)c2cc(-c3cccc(F)c3)cnc21` [Example 7, 6-(3-Fluorophenyl)-3-methyl-1-(pyrimidin-4-ylmethyl)imidazo[4,5-b]pyridin-2-one], the IC50 was 6.77 µM. Work on `Cc1cc(Cn2c(=O)n(C)c3ncc(-c4ccc(F)c(F)c4)cc32)no1` [Example 8, 6-(3,4-Difluorophenyl)-3-methyl-1-[(5-methylisoxazol-3-yl)methyl]imidazo[4,5-b]pyridin-2-one] yielded an IC50 of 0.104 µM. Compound `CN(C)C(=O)Cn1c(=O)n(C)c2ncc(-c3ccc(Cl)s3)cc21` [Example 9, 2-[6-(5-Chloro-2-thienyl)-3-methyl-2-oxo-imidazo[4,5-b]pyridin-1-yl]-N,N-dimethyl-acetamide] has an IC50 of 0.005 µM. In the case of `Cn1c(=O)n(CC(=O)N2CC(F)C2)c2cc(-c3ccc(C(F)F)s3)cnc21` [Example 10, 6-[5-(Difluoromethyl)-2-thienyl]-1-[2-(3-fluoroazetidin-1-yl)-2-oxo-ethyl]-3-methyl-imidazo[4,5-b]pyridin-2-one], the IC50 is reported as 0.01 µM. Compound `Cc1cc(Cn2c(=O)[nH]c3ncc(-c4ccccc4)cc32)no1` [Example 11, 1-[(5-Methylisoxazol-3-yl)methyl]-6-phenyl-3H-imidazo[4,5-b]pyridin-2-one] has an IC50 of 0.088 µM. Work on `Cc1cc(Cn2c(=O)[nH]c3ncc(-c4ccc(F)cc4)cc32)no1` [Example 12, 6-(4-Fluorophenyl)-1-[(5-methylisoxazol-3-yl)methyl]-3H-imidazo[4,5-b]pyridin-2-one] yielded an IC50 of 0.029 µM. Work on `Cc1nnc(Cn2c(=O)[nH]c3ncc(-c4ccc(F)cc4)cc32)o1` [Example 13, 6-(4-Fluorophenyl)-1-[(5-methyl-1,3,4-oxadiazol-2-yl)methyl]-3H-imidazo[4,5-b]pyridin-2-one] yielded an IC50 of 0.076 µM. `Cc1csc(-c2cnc3c(c2)n(Cc2cc(C)on2)c(=O)n3C)c1` [Example 14, 3-Methyl-1-[(5-methylisoxazol-3-yl)methyl]-6-(4-methyl-2-thienyl)imidazo[4,5-b]pyridin-2-one] was tested, and the IC50 was 0.097 µM. Work on `Cn1cc(Cn2c(=O)[nH]c3ncc(-c4ccc(F)cc4)cc32)cn1` [Example 15, 6-(4-Fluorophenyl)-1-[(1-methylpyrazol-4-yl)methyl]-3H-imidazo[4,5-b]pyridin-2-one] yielded an IC50 of 0.204 µM. `Cc1cc(Cn2c(=O)[nH]c3ncc(-c4ccc(F)cc4)cc32)nn1C` [Example 16, 1-[(1,5-Dimethylpyrazol-3-yl)methyl]-6-(4-fluorophenyl)-3H-imidazo[4,5-b]pyridin-2-one] was tested, and the IC50 was 8.9 µM. In the case of `O=c1[nH]c2ncc(-c3cccc(C(F)(F)F)c3)cc2n1CCN1CCC1` [Example 17, 1-[2-(Azetidin-1-yl)ethyl]-6-[3-(trifluoromethyl)phenyl]-3H-imidazo[4,5-b]pyridin-2-one], the IC50 is reported as 0.146 µM. In the case of `Cn1c(=O)n(CCN2CCC2)c2cc(-c3cccc(C(F)(F)F)c3)cnc21` [Example 18, 1-[2-(Azetidin-1-yl)ethyl]-3-methyl-6-[3-(trifluoromethyl)phenyl]imidazo[4,5-b]pyridin-2-one], the IC50 is reported as 0.7 µM. In the case of `Cc1cc(Cn2c(=O)[nH]c3ncc(-c4cccc(C(F)(F)F)c4)cc32)no1` [Example 19, 1-[(5-Methylisoxazol-3-yl)methyl]-6-[3-(trifluoromethyl)phenyl]-3H-imidazo[4,5-b]pyridin-2-one], the IC50 is reported as 0.124 µM. `O=c1[nH]c2ncc(-c3cccc(C(F)(F)F)c3)cc2n1Cc1cccc(Cl)c1` [Example 21, 1-[(3-Chlorophenyl)methyl]-6-[3-(trifluoromethyl)phenyl]-3H-imidazo[4,5-b]pyridin-2-one] gave an IC50 of 1.34 µM. `COc1ncccc1Cn1c(=O)[nH]c2ncc(-c3cccc(C(F)(F)F)c3)cc21` [Example 22, 1-[(2-Methoxy-3-pyridyl)methyl]-6-[3-(trifluoromethyl)phenyl]-3H-imidazo[4,5-b]pyridin-2-one] was tested, and the IC50 was 26.7 µM. `O=c1[nH]c2ncc(-c3cccc(C(F)(F)F)c3)cc2n1Cc1ccncn1` [Example 23, 1-(Pyrimidin-4-ylmethyl)-6-[3-(trifluoromethyl)phenyl]-3H-imidazo[4,5-b]pyridin-2-one] gave an IC50 of 0.22 µM. `O=C(Cn1c(=O)[nH]c2ncc(-c3cccc(C(F)(F)F)c3)cc21)N1CCC1` [Example 25, 1-[2-(Azetidin-1-yl)-2-oxo-ethyl]-6-[3-(trifluoromethyl)phenyl]-3H-imidazo[4,5-b]pyridin-2-one] showed an IC50 of 0.07 µM. `CN(C)C(=O)Cn1c(=O)[nH]c2ncc(-c3ccc(C(F)(F)F)s3)cc21` [Example 26, N,N-Dimethyl-2-[2-oxo-6-(5-(trifluoromethyl)-2-thienyl]-3H-imidazo[4,5-b]pyridin-1-yl)acetamide] showed an IC50 of 0.012 µM. Work on `Cn1c(=O)n(CC(=O)N2CCC2)c2cc(-c3ccc(C(F)(F)F)s3)cnc21` [Example 27, 1-[2-(Azetidin-1-yl)-2-oxo-ethyl]-3-methyl-6-[5-(trifluoromethyl)-2-thienyl]imidazo[4,5-b]pyridin-2-one] yielded an IC50 of 0.031 µM. In the case of `CN(C)C(=O)Cn1c(=O)n(C)c2ncc(-c3ccc(C(F)(F)F)s3)cc21` [Example 28, N,N-Dimethyl-2-[3-methyl-2-oxo-6-[5-(trifluoromethyl)-2-thienyl]imidazo[4,5-b]pyridin-1-yl]acetamide], the IC50 is reported as 0.034 µM. With `Cc1ccc(C(F)(F)F)cc1-c1cnc2[nH]c(=O)n(CC(=O)N3CCC3)c2c1` [Example 29, 1-[2-(Azetidin-1-yl)-2-oxo-ethyl]-6-[2-methyl-5-(trifluoromethyl)phenyl]-3H-imidazo[4,5-b]pyridin-2-one] the IC50 was 0.396 µM. `CCC(=O)Cn1c(=O)[nH]c2ncc(-c3ccc(F)c(C)c3F)cc21` [Example 30, 6-(2,4-Difluoro-3-methyl-phenyl)-1-(2-oxobutyl)-3H-imidazo[4,5-b]pyridin-2-one] showed an IC50 of 0.011 µM. `O=c1[nH]cccc1Cn1c(=O)[nH]c2ncc(-c3cccc(C(F)(F)F)c3)cc21` [Example 32, 1-[(2-Oxo-1H-pyridin-3-yl)methyl]-6-[3-(trifluoromethyl)phenyl]-3H-imidazo[4,5-b]pyridin-2-one] showed an IC50 of 8.33 µM. Compound `Cn1c(=O)n(CC(=O)N2CC(F)C2)c2cc(-c3cccc(C(F)(F)F)c3)cnc21` [Example 34, 1-[2-(3-Fluoroazetidin-1-yl)-2-oxo-ethyl]-3-methyl-6-[3-(trifluoromethyl)phenyl]imidazo[4,5-b]pyridin-2-one] has an IC50 of 0.065 µM. In the case of `Cc1cc(F)ccc1-c1cnc2[nH]c(=O)n(CC(=O)NC3CC3)c2c1` [Example 36, N-Cyclopropyl-2-[6-(4-fluoro-2-methyl-phenyl)-2-oxo-3H-imidazo[4,5-b]pyridin-1-yl]acetamide], the IC50 is reported as 0.159 µM. Compound `Cc1cc(-c2cnc3c(c2)n(Cc2cccnc2)c(=O)n3C)ccc1F` [Example 45, 6-(4-Fluoro-3-methyl-phenyl)-3-methyl-1-(3-pyridylmethyl)imidazo[4,5-b]pyridin-2-one] has an IC50 of 0.038 µM. Compound `Cc1cc(-c2cnc3c(c2)n(Cc2ccncc2)c(=O)n3C)ccc1F` [Example 46, 6-(4-Fluoro-3-methyl-phenyl)-3-methyl-1-(4-pyridylmethyl)imidazo[4,5-b]pyridin-2-one] has an IC50 of 0.6 µM. Work on `Cc1cc(-c2cnc3c(c2)n(Cc2cnccn2)c(=O)n3C)ccc1F` [Example 47, 6-(4-Fluoro-3-methyl-phenyl)-3-methyl-1-(pyrazin-2-ylmethyl)imidazo[4,5-b]pyridin-2-one] yielded an IC50 of 0.113 µM.
